Values of other authors, collected in patent publication US20140349947A1, “HAIR GROWTH AGENT (EMBODIMENTS) AND METHOD FOR HAIR REGROWTH” (priority 2012, published 2014).

Assays:
[1] = not given; remark: listed apart in the source
[2] = in ointments and gels, dose up to 1,000 IU/g

| Bioavailability | Duration of the effects of heparin in tissues ([1]; after a single skin application) | Part of preparation deposited in the upper layers of skin ([1]; after application of ointment or gel) | Effect on bleeding time [1, 2] | Systemic effect [1, 2] | Substance |
| --- | --- | --- | --- | --- | --- |
| high | – | – | – | – | Low molecular weight heparin |
| low | up to 8 hours | up to 50% | does not affect the bleeding time | does not have a systemic effect | heparin sodium [Unfractionated heparin] |
